From ChEMBL document CHEMBL5512674, “Novel Acyl Thiourea-Based Hydrophobic Tagging Degraders Exert Potent Anti-Influenza Activity through Two Distinct Endonuclease Polymerase Acidic-Targeted Degradation Pathways” (J Med Chem, 2024)
The source made the active and inactive calls. The rule behind the calls is not given here.

Tests used:
[1] = molecular target: T1, von Hippel-Lindau disease tumor suppressor/Polymerase basic protein 2 (Influenza A virus (strain A/Puerto Rico/8/1934 H1N1)) (UniProt P40337+P03428); experiment: PROTAC activity at Influenza A virus A/WSN/33(H1N1) flag tagged Polymerase basic protein 2/VHL (unknown origin) expressed in HEK293T cells assessed as degradation of PB2 expression at 0.1 to 10 uM incubated for 24 hrs by Western blotting analysis; assay type: cell-based; conditions: dose 0.1-10 µM
Influenza B virus [2] = experiment: Anti-influenza activity against Influenza B virus Yamagata/16/88 infected in HEK293T cells assessed as reduction in virus-induced cytopathic effect incubated for 48 hrs by CCK-8 assay; assay type: functional, organism-based; conditions: Yamagata/16/88, HEK-293T
Influenza A virus [3] = experiment: Anti-influenza activity against Influenza A virus A/WSN/33(H1N1) infected in HEK293T cells assessed as reduction in virus-induced cytopathic effect incubated for 48 hrs by CCK-8 assay; assay type: functional, organism-based; conditions: HEK-293T
[4] = molecular target: von Hippel-Lindau disease tumor suppressor/Polymerase acidic protein (Influenza A virus (A/Puerto Rico/8/1934(H1N1)), UniProt P03433+P40337); experiment: PROTAC activity at Influenza A virus A/WSN/33(H1N1) flag tagged Polymerase acidic protein/VHL (unknown origin) expressed in HEK293T cells assessed as degradation of PA expression incubated for 24 hrs by Western blotting analysis; assay type: cell-based
[5] = Selectivity index, ratio of CC50 for cytotoxicity against human HEK293T cells to EC50 for anti-influenza activity against Influenza A virus A/WSN/33(H1N1) infected in HEK293T cells assessed as reduction in virus-induced cytopathic effect; assay type: toxicity, cell-based; conditions: read-out: Ratio CC50/EC50
[6] = molecular target: T2, von Hippel-Lindau disease tumor suppressor/Polymerase basic protein 1 (Influenza A virus (strain A/Puerto Rico/8/1934 H1N1)) (UniProt P03431+P40337); experiment: PROTAC activity at Influenza A virus A/WSN/33(H1N1) flag tagged Polymerase basic protein 1/VHL (unknown origin) expressed in HEK293T cells assessed as degradation of PB1 expression at 1 ug/ml incubated for 24 hrs by Western blotting analysis; assay type: cell-based; conditions: dose 1.0 µg/ml
[7] = Cytotoxicity against human HEK293T cells assessed as reduction in cell viability incubated for 48 hrs by CCK-8 assay; assay type: toxicity, cell-based, HEK-293T
Influenza A virus [8] = experiment: Anti-influenza activity against Influenza A virus H3N2 infected in HEK293T cells assessed as reduction in virus-induced cytopathic effect incubated for 48 hrs by CCK-8 assay; assay type: functional, organism-based; conditions: H3N2, HEK-293T
[9] = molecular target: T3, von Hippel-Lindau disease tumor suppressor/Polymerase acidic protein (Influenza A virus (A/Puerto Rico/8/1934(H1N1))) (UniProt P03433+P40337); experiment: PROTAC activity at Influenza A virus A/WSN/33(H1N1) flag tagged Polymerase acidic protein/VHL (unknown origin) expressed in HEK293T cells assessed as degradation of PA expression at 10 uM incubated for 24 hrs by Western blotting analysis; assay type: cell-based
[10] = molecular target: T2, von Hippel-Lindau disease tumor suppressor/Polymerase basic protein 1 (Influenza A virus (strain A/Puerto Rico/8/1934 H1N1)); experiment: PROTAC activity at Influenza A virus A/WSN/33(H1N1) flag tagged Polymerase basic protein 1/VHL (unknown origin) expressed in HEK293T cells assessed as degradation of PB1 expression at 10 ug/ml incubated for 24 hrs by Western blotting analysis; assay type: cell-based; conditions: dose 10.0 µg/ml
[11] = molecular target: T1, von Hippel-Lindau disease tumor suppressor/Polymerase basic protein 2 (Influenza A virus (strain A/Puerto Rico/8/1934 H1N1)); experiment: PROTAC activity at Influenza A virus A/WSN/33(H1N1) flag tagged Polymerase basic protein 2/VHL (unknown origin) expressed in HEK293T cells assessed as degradation of PB2 expression at 1 ug/ml incubated for 24 hrs by Western blotting analysis; assay type: cell-based; conditions: dose 1.0 µg/ml
Influenza B virus [12] = experiment: Anti-influenza activity against Influenza B virus Victoria/2/87 infected in HEK293T cells assessed as reduction in virus-induced cytopathic effect incubated for 48 hrs by CCK-8 assay; assay type: functional, organism-based; conditions: Victoria/2/87, HEK-293T
[13] = molecular target: T1, von Hippel-Lindau disease tumor suppressor/Polymerase basic protein 2 (Influenza A virus (strain A/Puerto Rico/8/1934 H1N1)); experiment: PROTAC activity at Influenza A virus A/WSN/33(H1N1) flag tagged Polymerase basic protein 2/VHL (unknown origin) expressed in HEK293T cells assessed as degradation of PB2 expression at 10 ug/ml incubated for 24 hrs by Western blotting analysis; assay type: cell-based; conditions: dose 10.0 µg/ml
[14] = molecular target: T2, von Hippel-Lindau disease tumor suppressor/Polymerase basic protein 1 (Influenza A virus (strain A/Puerto Rico/8/1934 H1N1)); experiment: PROTAC activity at Influenza A virus A/WSN/33(H1N1) flag tagged Polymerase basic protein 1/VHL (unknown origin) expressed in HEK293T cells assessed as degradation of PB1 expression at 0.1 to 10 uM incubated for 24 hrs by Western blotting analysis; assay type: cell-based; conditions: dose 0.1-10 µM
Influenza A virus [15] = experiment: Anti-influenza activity against Influenza A virus A/WSN/33(H1N1) infected in MDCK cells assessed as downregulation of nucleoprotein expression at 100 nM incubated for 24 hrs by Western blotting analysis relative to control; assay type: functional
[16] = Cytotoxicity against dog MDCK cells assessed as reduction in cell viability incubated for 48 hrs by CCK-8 assay; assay type: toxicity, cell-based, Canis lupus familiaris
Influenza A virus [17] = experiment: Anti-influenza activity against Influenza A virus A/PR/8/34 (H1N1) infected in MDCK cells assessed as inhibition of viral growth at 100 uM incubated for 48 hrs by luciferase assay relative to control; assay type: functional
[18] = molecular target: T3, von Hippel-Lindau disease tumor suppressor/Polymerase acidic protein (Influenza A virus (A/Puerto Rico/8/1934(H1N1))); experiment: PROTAC activity at Influenza A virus A/WSN/33(H1N1) flag tagged Polymerase acidic protein/VHL (unknown origin) expressed in HEK293T cells assessed as degradation of PA expression at 5 uM incubated for 24 hrs by Western blotting analysis; assay type: cell-based
[19] = molecular target: T3, von Hippel-Lindau disease tumor suppressor/Polymerase acidic protein (Influenza A virus (A/Puerto Rico/8/1934(H1N1))); experiment: PROTAC activity at Influenza A virus A/WSN/33(H1N1) flag tagged Polymerase acidic protein/VHL (unknown origin) expressed in HEK293T cells assessed as degradation of PA expression at 10 uM incubated for 16 hrs by Western blotting analysis; assay type: cell-based

## CC(C)(C)OC(=O)NCCCC[C@H](NC(=O)OC(C)(C)C)C(=O)NCCCCCCCCC(=O)Nc1ccc(NC(=S)NC(=O)c2ccc(C(C)(C)C)cc2)cc1
[1]
  Activity: inactive
Influenza B virus [2]
  EC50: 130 nM
Influenza A virus [3]
  EC50: 21 nM
[4]
  DC50: 650 nM
[5]
  selectivity ratio: > 4760
[6]
  Activity: inactive
[7]
  CC50 at 48 h: > 100000 nM
Influenza A virus [8]
  EC50: > 10000 nM
[9]
  Activity: Active
[10]
  Activity: inactive
[11]
  Activity: inactive
Influenza B virus [12]
  EC50: 167 nM
[13]
  Activity: inactive
[14]
  Activity: inactive

## CCOC(=O)C1=C[C@@H](OC(CC)CC)[C@H](NC(C)=O)[C@@H](N)C1 [OSELTAMIVIR]
Influenza A virus [15]
  Activity: 44%
[16]
  CC50 at 48 h: > 200000 nM

## NC12CC3CC(CC(C3)C1)C2 [AMANTADINE]
Influenza A virus [3]
  EC50: 1790 nM
[5]
  selectivity ratio: > 55.9
[7]
  CC50 at 48 h: > 100000 nM
Influenza A virus [17]
  inhibition at 100 µM: 62.3%

## Cc1ncsc1-c1ccc(CNC(=O)[C@@H]2C[C@@H](O)CN2C(=O)C(NCCCCCCCC(=O)Nc2ccc(NC(=S)NC(=O)c3ccc(C(C)(C)C)cc3)cc2)C(C)(C)C)cc1 (mixture of isomers)
[18]
  Activity: Active
Influenza A virus [3]
  EC50: > 10000 nM
[19]
  Activity: Active
